Where two headings read alike, the source gives them in different places.
How the values were obtained:
PDE5A3 = PDE5A3 (Homo sapiens, UniProt O76074); assay: In vitro PDE selectivity assay (SPA), PDE5A3; type: biochemical; details: hPDE5A3; read-out: PDE 5A3 (expressed as pIC50) (converted)
Outline: (§1)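 Inhibition of each PDE isoform was measured by scintillation proximity assay with ³H-cyclic nucleotide substrate, using incubation buffer, substrate concentration, incubation time and stop solution adapted per isoform. Compounds were tested in dose-response against 1% DMSO controls and enzyme-free blanks. IC50 came from a least-squares fit of blank-subtracted % of control versus concentration.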

[1] = target: other members of the PDE family (Homo sapiens, UniProt Q13946); assay: In vitro PDE selectivity assay (SPA), other members of the PDE family (protocols in Table A); type: biochemical; details: hPDE7A1; read-out: PDE 7A (expressed as pIC50) (converted)
other members of the PDE family (Homo sapiens, UniProt Q13946), sequence (Q13946 whole entry): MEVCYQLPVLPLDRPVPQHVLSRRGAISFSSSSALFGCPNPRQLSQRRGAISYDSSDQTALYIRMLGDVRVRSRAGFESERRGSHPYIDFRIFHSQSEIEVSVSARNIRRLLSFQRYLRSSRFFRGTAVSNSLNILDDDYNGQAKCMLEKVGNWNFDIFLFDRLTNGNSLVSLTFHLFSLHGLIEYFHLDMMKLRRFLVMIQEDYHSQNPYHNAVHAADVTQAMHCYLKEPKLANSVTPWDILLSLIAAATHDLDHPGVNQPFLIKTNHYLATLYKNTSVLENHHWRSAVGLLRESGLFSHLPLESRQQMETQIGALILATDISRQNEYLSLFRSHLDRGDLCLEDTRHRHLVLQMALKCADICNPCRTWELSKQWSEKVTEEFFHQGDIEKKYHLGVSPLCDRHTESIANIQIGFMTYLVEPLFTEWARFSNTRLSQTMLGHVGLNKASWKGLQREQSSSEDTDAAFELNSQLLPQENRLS
Outline: as §1

[2] = target: other members of the PDE family (Homo sapiens, UniProt O76083); assay: as above; type: biochemical; details: hPDE9A; read-out: PDE 9A (expressed as pIC50) (converted)
other members of the PDE family (Homo sapiens, UniProt O76083), sequence (O76083 whole entry): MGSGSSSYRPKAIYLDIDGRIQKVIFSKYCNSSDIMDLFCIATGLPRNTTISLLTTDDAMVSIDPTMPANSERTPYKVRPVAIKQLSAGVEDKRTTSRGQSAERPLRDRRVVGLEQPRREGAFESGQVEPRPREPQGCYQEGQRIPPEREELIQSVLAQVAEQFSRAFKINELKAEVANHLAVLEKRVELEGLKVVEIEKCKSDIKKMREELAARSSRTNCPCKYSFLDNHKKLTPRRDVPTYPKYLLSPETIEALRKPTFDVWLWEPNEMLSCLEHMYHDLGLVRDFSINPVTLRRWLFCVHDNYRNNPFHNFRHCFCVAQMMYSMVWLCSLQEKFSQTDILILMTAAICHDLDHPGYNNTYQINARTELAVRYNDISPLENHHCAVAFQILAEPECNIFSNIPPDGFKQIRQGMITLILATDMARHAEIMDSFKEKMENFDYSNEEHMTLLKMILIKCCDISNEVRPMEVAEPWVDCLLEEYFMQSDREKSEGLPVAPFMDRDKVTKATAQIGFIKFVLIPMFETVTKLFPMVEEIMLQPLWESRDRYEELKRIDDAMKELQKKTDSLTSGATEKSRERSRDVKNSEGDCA
Outline: as §1

[3] = target: other members of the PDE family (Homo sapiens, UniProt O00408); assay: as above; type: biochemical; details: hPDE2A; read-out: PDE 2A (expressed as pIC50) (converted)
other members of the PDE family (Homo sapiens, UniProt O00408), sequence (O00408 whole entry): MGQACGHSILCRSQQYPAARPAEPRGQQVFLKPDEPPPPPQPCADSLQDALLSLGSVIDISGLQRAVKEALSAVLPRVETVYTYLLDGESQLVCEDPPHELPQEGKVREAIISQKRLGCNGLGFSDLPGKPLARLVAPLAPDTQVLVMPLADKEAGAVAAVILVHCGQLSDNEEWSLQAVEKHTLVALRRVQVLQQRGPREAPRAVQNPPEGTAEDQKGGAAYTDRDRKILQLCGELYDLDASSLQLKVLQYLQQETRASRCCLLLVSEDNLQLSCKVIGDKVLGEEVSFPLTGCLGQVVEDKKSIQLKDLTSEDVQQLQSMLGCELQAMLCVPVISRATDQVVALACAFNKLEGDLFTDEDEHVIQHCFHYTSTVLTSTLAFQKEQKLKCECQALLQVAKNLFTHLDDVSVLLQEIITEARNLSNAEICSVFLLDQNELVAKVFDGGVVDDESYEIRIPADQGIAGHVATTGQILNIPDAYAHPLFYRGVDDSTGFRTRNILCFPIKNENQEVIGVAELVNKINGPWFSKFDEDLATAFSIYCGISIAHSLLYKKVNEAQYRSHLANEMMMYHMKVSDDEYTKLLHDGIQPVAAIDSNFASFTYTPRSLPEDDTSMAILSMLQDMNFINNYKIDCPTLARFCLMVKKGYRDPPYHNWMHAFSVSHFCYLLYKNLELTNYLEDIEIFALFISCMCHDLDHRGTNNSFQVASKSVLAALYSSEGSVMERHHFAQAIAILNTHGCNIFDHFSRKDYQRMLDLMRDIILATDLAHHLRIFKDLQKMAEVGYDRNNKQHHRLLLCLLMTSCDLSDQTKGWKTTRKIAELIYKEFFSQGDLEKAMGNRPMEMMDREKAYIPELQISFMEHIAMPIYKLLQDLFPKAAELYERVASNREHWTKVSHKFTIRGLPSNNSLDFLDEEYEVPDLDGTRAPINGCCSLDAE
Outline: as §1

[4] = target: other members of the PDE family (Homo sapiens, UniProt Q9HCR9); assay: as above; type: biochemical; details: hPDE11A4; read-out: PDE 11A4 (expressed as pIC50) (converted)
other members of the PDE family (Homo sapiens, UniProt Q9HCR9), sequence (Q9HCR9 whole entry): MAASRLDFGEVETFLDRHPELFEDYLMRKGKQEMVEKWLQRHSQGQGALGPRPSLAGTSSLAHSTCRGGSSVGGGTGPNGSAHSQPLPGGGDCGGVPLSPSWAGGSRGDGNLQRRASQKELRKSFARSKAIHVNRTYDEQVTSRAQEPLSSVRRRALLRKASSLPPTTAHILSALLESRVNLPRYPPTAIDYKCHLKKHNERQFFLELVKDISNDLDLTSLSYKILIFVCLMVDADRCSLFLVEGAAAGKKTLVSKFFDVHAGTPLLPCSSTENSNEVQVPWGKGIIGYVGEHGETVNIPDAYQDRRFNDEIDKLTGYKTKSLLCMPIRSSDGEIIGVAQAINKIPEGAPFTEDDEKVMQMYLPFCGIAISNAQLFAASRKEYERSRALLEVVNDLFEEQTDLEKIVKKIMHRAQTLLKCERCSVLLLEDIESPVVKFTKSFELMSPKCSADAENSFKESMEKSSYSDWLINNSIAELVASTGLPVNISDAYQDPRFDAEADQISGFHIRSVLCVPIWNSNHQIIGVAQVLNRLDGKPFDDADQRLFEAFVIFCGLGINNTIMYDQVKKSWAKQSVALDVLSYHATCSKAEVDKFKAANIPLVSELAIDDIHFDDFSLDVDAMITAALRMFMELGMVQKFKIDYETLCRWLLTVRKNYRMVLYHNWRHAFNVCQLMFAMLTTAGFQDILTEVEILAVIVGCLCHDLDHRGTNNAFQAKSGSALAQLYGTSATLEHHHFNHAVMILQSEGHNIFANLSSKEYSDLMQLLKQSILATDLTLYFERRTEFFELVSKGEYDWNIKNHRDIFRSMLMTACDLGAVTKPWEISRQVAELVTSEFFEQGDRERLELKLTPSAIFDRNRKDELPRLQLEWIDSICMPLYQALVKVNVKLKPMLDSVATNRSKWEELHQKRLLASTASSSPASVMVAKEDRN
Outline: as §1

[5] = target: other members of the PDE family (Homo sapiens, UniProt Q14432); assay: as above; type: biochemical; details: hPDE3A; read-out: PDE 3A (expressed as pIC50) (converted)
other members of the PDE family (Homo sapiens, UniProt Q14432), sequence (Q14432 whole entry): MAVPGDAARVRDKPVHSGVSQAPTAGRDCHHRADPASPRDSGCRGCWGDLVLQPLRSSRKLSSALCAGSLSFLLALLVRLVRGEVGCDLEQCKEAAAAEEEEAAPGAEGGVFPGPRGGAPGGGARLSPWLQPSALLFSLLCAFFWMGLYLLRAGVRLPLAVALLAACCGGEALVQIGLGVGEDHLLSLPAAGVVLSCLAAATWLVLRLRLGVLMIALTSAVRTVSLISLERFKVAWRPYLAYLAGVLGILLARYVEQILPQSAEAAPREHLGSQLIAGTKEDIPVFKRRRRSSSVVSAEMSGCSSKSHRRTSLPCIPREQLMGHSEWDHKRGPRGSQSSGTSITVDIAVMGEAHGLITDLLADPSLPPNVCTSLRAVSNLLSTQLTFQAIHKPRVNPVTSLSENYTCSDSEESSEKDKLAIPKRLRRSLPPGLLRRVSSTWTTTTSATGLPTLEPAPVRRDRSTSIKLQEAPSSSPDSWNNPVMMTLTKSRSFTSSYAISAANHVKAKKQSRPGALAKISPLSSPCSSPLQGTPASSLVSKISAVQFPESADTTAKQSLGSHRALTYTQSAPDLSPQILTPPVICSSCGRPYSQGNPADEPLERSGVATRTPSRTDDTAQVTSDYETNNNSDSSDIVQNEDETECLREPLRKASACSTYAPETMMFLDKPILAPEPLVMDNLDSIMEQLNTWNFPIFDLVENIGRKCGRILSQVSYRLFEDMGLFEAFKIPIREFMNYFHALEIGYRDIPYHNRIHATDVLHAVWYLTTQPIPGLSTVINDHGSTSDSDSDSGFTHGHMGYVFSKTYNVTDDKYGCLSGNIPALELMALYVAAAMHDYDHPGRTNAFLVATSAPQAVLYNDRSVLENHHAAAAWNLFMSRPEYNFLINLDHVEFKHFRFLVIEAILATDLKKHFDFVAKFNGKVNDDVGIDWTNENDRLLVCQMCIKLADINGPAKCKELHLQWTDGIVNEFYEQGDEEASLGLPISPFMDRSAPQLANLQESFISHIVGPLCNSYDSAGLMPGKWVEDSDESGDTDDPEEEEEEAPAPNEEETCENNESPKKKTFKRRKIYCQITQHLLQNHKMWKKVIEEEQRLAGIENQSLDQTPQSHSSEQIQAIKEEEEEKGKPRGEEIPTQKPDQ
Outline: as §1

PDE10 = target: T1, PDE10 (Rattus norvegicus, UniProt Q9QYJ6); assay: PDE10 occupancy ([3H]-MP-10, striatum); type: in vivo; details: rat; for ED50: dose response; for receptor occupancy at 10 mg/kg: single dose 10 mg/kg, subcutaneous, read-out: SD sc % occupancy at 10 mg/kg
T1 construct: from tissue; host or cells: rat brain sections, striatum (in vivo dosing, ex vivo autoradiography)
T1 sequence (Q9QYJ6 1-794): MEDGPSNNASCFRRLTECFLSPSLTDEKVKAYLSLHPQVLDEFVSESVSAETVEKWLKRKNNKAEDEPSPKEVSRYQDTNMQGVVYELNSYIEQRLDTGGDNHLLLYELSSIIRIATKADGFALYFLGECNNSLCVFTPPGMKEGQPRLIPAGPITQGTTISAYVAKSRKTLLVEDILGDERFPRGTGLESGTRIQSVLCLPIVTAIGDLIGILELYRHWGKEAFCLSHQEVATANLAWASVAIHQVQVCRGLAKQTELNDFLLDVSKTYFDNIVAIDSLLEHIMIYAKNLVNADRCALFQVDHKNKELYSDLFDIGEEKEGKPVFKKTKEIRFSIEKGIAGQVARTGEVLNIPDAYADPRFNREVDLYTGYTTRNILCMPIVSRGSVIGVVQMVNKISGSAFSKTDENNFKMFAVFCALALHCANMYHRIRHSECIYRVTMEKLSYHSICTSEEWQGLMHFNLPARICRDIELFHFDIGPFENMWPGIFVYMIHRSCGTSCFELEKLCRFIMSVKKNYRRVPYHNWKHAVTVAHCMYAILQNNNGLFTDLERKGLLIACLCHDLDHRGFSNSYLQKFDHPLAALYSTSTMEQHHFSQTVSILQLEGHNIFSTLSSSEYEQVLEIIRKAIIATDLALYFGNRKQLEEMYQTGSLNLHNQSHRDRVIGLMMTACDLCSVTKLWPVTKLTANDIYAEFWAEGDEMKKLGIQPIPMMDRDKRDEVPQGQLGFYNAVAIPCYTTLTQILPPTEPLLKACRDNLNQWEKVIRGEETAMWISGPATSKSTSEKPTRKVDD
Outline: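 Male Wistar rats (200 g) dosed s.c. or p.o.; occupancy measured 1 h post-dose. [^3H]-MP-10 (10 μCi/animal) given i.v. 30 min before sacrifice.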

[6] = sc, subcutaneous administration, read-out: PDE10 in vivo occupancy ED50 sc
[7] = oral administration, read-out: PDE10 in vivo occupancy ED50 po

| Compound | IC50 (PDE5A3) [µM] | IC50 [1] [µM] | IC50 [2] [µM] | IC50 [3] [µM] | IC50 [4] [µM] | IC50 [5] [µM] | ED50 (PDE10; [6]) [mg/kg] | receptor occupancy at 10 mg/kg (PDE10; sc) [%] | ED50 (PDE10; [7]) [mg/kg] |
| --- | --- | --- | --- | --- | --- | --- | --- | --- | --- |
| COCCc1ccc(-c2c(C)nc3c(N4CCOCC4)ccnn23)cn1 [compound 1, 3-[6-(2-methoxyethyl)-3-pyridinyl]-2-methyl-8-(4-morpholinyl)-imidazo[1,2-b]pyridazine] | 17 | 69.2 | > 100 | 39.8 | 74.1 | 97.7 | 0.48 | 76 | 1.4 |
| COCCOc1ccc(-c2c(C)nc3c(-c4ccncc4)ccnn23)cn1 [compound 21, 3-[6-(2-methoxyethoxy)-3-pyridinyl]-2-methyl-8-(4-pyridinyl)-imidazo[1,2-b]pyridazine] | 19.1 | > 50.1 | > 50.1 | 47.9 | > 50.1 | > 50.1 | 2.6 | 61 | 14 |
